Converted amounts (≈) assume the structure as drawn. Where two headings read alike, the source gives them in different places.
Key:
[1] = system: H460 (human lung cancer cell); assay: In vitro anti-tumor cellular activity (MTT), H460; type: cell-based; details: for IC50: Homo sapiens, read-out: H460 IC50
[2] = system: U87MG (Human malignant glioblastoma cells); assay: In vitro anti-tumor cellular activity (MTT), U87MG; type: cell-based; details: for IC50: Homo sapiens, U-87 MG, read-out: U87MG IC50
[3] = system: HT-29 (colon cancer cell); assay: In vitro anti-tumor cellular activity (MTT), HT-29; type: cell-based, human; details: for IC50: Homo sapiens, read-out: HT-29 IC50
[4] = system: MKN-45 (human gastric carcinoma cell); assay: In vitro anti-tumor cellular activity (MTT), MKN-45; type: cell-based; details: for IC50: Homo sapiens, read-out: MKN-45 IC50
[5] = system: SMMC-7721 (hepatoma cell); assay: In vitro anti-tumor cellular activity (MTT), SMMC-7721; type: cell-based, human; details: for IC50: Homo sapiens, read-out: SMMC-7721 IC50
[6] = target: T1, c-Met (His-tagged recombinant human Met (Amino acids 974-ends)) (Homo sapiens, UniProt P08581); assay: c-Met kinase assay (ELISA); type: biochemical; details: 50 pM c-Met, 5 μM ATP, 20 min
T1 construct: His-tagged recombinant human Met (Amino acids 974-ends); His; host or cells: baculovirus expression
Procedure: c-Met kinase activity was measured with an ELISA reader.
The reaction mixture was removed by washing with 0.2 μg/mL conjugated horseradish peroxidase (HRP) monoclonal antibody specific for phosphotyrosine (PY20) detecting phosphorylation of the substrate polymer. 1M phosphoric acid was added to terminate the color, the chromogenic substrate (TMB) was tested by spectrophotometry at 450 nm.

T1 sequence (P08581 974-1390 limits assumed): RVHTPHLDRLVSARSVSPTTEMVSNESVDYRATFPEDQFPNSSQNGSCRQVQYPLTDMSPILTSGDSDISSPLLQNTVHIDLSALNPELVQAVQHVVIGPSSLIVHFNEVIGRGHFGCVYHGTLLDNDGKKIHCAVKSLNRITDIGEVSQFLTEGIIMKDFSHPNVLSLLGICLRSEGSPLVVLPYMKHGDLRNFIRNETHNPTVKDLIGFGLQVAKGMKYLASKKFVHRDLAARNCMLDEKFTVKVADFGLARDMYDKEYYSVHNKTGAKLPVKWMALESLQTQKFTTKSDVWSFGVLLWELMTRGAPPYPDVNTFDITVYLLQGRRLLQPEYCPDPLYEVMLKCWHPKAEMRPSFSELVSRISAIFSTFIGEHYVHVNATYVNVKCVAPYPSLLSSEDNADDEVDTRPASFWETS

IC50 ([1]; NCI-H460, MTT, 72 hours, H460)	IC50 ([2]; MTT, 72 hours, U87MG)	IC50 ([3]; MTT, 72 hours, HT-29)	IC50 ([4]; MTT, 72 hours, MKN-45)	IC50 ([5]; MTT, 72 hours, SMMC-7721)	IC50 [6]	Compound	IC50 ([1]; NCI-H460, 72 h)	IC50 ([2]; 72 h)	IC50 ([3]; HT-29, 72 h)	IC50 ([4]; MKN-45, 72 h)	IC50 ([5]; SMMC-7721, 72 h)	H460 IC50 ([1]; MTT, 72 hours, H460)	U87MG IC50 ([2]; MTT, 72 hours, U87MG)	HT-29 IC50 ([3]; MTT, 72 hours, HT-29)	MKN-45 IC50 ([4]; MTT, 72 hours, MKN-45)	SMMC-7721 IC50 ([5]; MTT, 72 hours, SMMC-7721)	c-Met IC50 [6]
0.7 µg/mL	0.88 µg/mL	0.65 µg/mL	1.1 µg/mL	0.56 µg/mL	1.35 µM	COc1cc2c(Oc3ccc(NC(=O)c4cn(-c5ccccc5C(F)(F)F)c5ccccc5c4=O)cc3F)ccnc2cc1OCCCN1CCOCC1.Cl.Cl [Example 48, N-(3-fluoro-4-((6-methoxy-7-(3-(morpholin-4-yl)propoxy)quinolin-4-yl)oxy)phenyl)-4-oxo-1-(2-(trifluoromethyl)phenyl)-1,4-dihydroquinoline-3-carboxamide dihydrochloride]	–	–	–	–	–	–	–	–	–	–	–
1.1 µg/mL (≈ 1.59 µM)	1.5 µg/mL (≈ 2.16 µM)	0.7 µg/mL (≈ 1.01 µM)	1.3 µg/mL (≈ 1.87 µM)	0.87 µg/mL (≈ 1.25 µM)	0.966 µM	COc1cc2c(Oc3ccc(NC(=O)c4nn(-c5ccc(F)cc5)c5ccccc5c4=O)cc3F)ccnc2cc1OCCCN1CCOCC1 [Example 36, N-(3-fluoro-4-((6-methoxy-7-(3-(morpholin-4-yl)propoxy)quinolin-4-yl)oxy)phenyl)-1-(4-fluorophenyl)-4-oxo-1,4-dihydrocinnoline-3-carboxamide]	–	–	–	–	–	–	–	–	–	–	–
1.1 µg/mL (≈ 1.54 µM)	2.8 µg/mL (≈ 3.91 µM)	1.4 µg/mL (≈ 1.96 µM)	0.8 µg/mL (≈ 1.12 µM)	0.86 µg/mL (≈ 1.2 µM)	1.26 µM	COc1cc2c(Oc3ccc(NC(=O)c4nn(-c5ccc(C)cc5C)c5ccccc5c4=O)cc3F)ccnc2cc1OCCCN1CCC(C)CC1 [Example 24, N-(3-fluoro-4-((6-methoxy-7-(3-(4-methylpiperidin-1-yl)propoxy)quinolin-4-yl)oxy)phenyl)-1-(2,4-dimethylphenyl)-4-oxo-1,4-dihydrocinnoline-3-carboxamide]	–	–	–	–	–	–	–	–	–	–	–
0.63 µg/mL (≈ 0.874 µM)	0.14 µg/mL (≈ 0.194 µM)	0.63 µg/mL (≈ 0.874 µM)	0.49 µg/mL (≈ 0.679 µM)	0.52 µg/mL (≈ 0.721 µM)	0.971 µM	COc1cc2c(Oc3ccc(NC(=O)c4cn(-c5ccccc5Cl)c5ccccc5c4=O)cc3F)ccnc2cc1OCCCN1CCC(C)CC1 [Example 54, N-(3-fluoro-4-((6-methoxy-7-(3-(4-methylpiperidin-1-yl)propoxy)quinolin-4-yl)oxy)phenyl)-1-(2-chlorophenyl)-4-oxo-1,4-dihydroquinoline-3-carboxamide]	–	–	–	–	–	–	–	–	–	–	–
0.58 µg/mL (≈ 0.857 µM)	0.28 µg/mL (≈ 0.414 µM)	0.41 µg/mL (≈ 0.606 µM)	0.24 µg/mL (≈ 0.355 µM)	0.53 µg/mL (≈ 0.783 µM)	0.296 µM	COc1cc2c(Oc3ccc(NC(=O)c4cn(-c5ccccc5F)c5ccccc5c4=O)cc3F)ccnc2cc1OCCCN1CCCC1 [Example 51, N-(3-fluoro-4-((6-methoxy-7-(3-(pyrrolidin-1-yl)propoxy)quinolin-4-yl)oxy)phenyl)-1-(2-fluorophenyl)-4-oxo-1,4-dihydroquinoline-3-carboxamide]	–	–	–	–	–	–	–	–	–	–	–
1.3 µg/mL (≈ 1.72 µM)	1.1 µg/mL (≈ 1.46 µM)	0.87 µg/mL (≈ 1.15 µM)	0.91 µg/mL (≈ 1.21 µM)	0.58 µg/mL (≈ 0.768 µM)	1.06 µM	COc1cc2c(Oc3ccc(NC(=O)c4cn(-c5ccccc5C(F)(F)F)c5ccccc5c4=O)cc3F)ccnc2cc1OCCCN1CCC(C)CC1 [Example 57, N-(3-fluoro-4-((6-methoxy-7-(3-(4-methylpiperidin-1-yl)propoxy)quinolin-4-yl)oxy)phenyl)-4-oxo-1-(2-(trifluoromethyl)phenyl)-1,4-dihydroquinoline-3-carboxamide]	–	–	–	–	–	–	–	–	–	–	–
1.6 µg/mL (≈ 2.11 µM)	1.1 µg/mL (≈ 1.45 µM)	1.8 µg/mL (≈ 2.38 µM)	2.1 µg/mL (≈ 2.77 µM)	0.98 µg/mL (≈ 1.29 µM)	1.45 µM	COc1cc2c(Oc3ccc(NC(=O)c4nn(-c5ccccc5OC(F)(F)F)c5ccccc5c4=O)cc3F)ccnc2cc1OCCCN1CCCCC1 [Example 38, N-(3-fluoro-4-((6-methoxy-7-(3-(piperidin-1-yl)propoxy)quinolin-4-yl)oxy)phenyl)-1-(2-(trifluoromethoxy)phenyl)-4-oxo-1,4-dihydrocinnoline-3-carboxamide]	–	–	–	–	–	–	–	–	–	–	–

The remaining lines, values behind:

Compound	IC50 ([1]; NCI-H460, MTT, 72 hours, H460)	IC50 ([2]; MTT, 72 hours, U87MG)	IC50 ([3]; MTT, 72 hours, HT-29)	IC50 ([4]; MTT, 72 hours, MKN-45)	IC50 ([5]; MTT, 72 hours, SMMC-7721)	IC50 [6]	IC50 ([1]; NCI-H460, 72 h)	IC50 ([2]; 72 h)	IC50 ([3]; HT-29, 72 h)	IC50 ([4]; MKN-45, 72 h)	IC50 ([5]; SMMC-7721, 72 h)	H460 IC50 ([1]; MTT, 72 hours, H460)	U87MG IC50 ([2]; MTT, 72 hours, U87MG)	HT-29 IC50 ([3]; MTT, 72 hours, HT-29)	MKN-45 IC50 ([4]; MTT, 72 hours, MKN-45)	SMMC-7721 IC50 ([5]; MTT, 72 hours, SMMC-7721)	c-Met IC50 [6]
COc1cc2c(Oc3ccc(NC(=O)c4nn(-c5c(Cl)cccc5Cl)c5ccccc5c4=O)cc3F)ccnc2cc1OCCCN1CCN(C)CC1 [Example 32, N-(3-fluoro-4-((6-methoxy-7-(3-(4-methylpiperazin-1-yl)propoxy)quinolin-4-yl)oxy)phenyl)-1-(2,6-dichlorophenyl)-4-oxo-1,4-dihydrocinnoline-3-carboxamide]	–	–	–	–	–	0.132 µM	0.7 µg/mL (≈ 0.924 µM)	0.65 µg/mL (≈ 0.858 µM)	0.77 µg/mL (≈ 1.02 µM)	1.2 µg/mL (≈ 1.58 µM)	0.66 µg/mL (≈ 0.871 µM)	–	–	–	–	–	–
N-(3-fluoro-4-((6-methoxy-7-(3-(piperidin-1-yl)propoxy)quinolin-4-yl)oxy)phenyl)-1-(2-fl uorophenyl)-4-oxo-1,4-dihydrocinnoline-3-carboxamide [Example 7]	–	–	–	–	–	–	–	–	–	–	–	1.7 µg/mL	1.5 µg/mL	0.82 µg/mL	1.4 µg/mL	0.63 µg/mL	0.5 µg/mL
N-(3-fluoro-4-((6-methoxy-7-(3-(4-methylpiperazin-1-yl)propoxy)quinolin-4-yl)oxy)phenyl)-1-(2-chlorophenyl)-4-oxo-1,4-dihydrocinnoline-3-carboxamide dihydrochloride [Example 17]	–	–	–	–	–	–	–	–	–	–	–	1.4 µg/mL	0.9 µg/mL	1.8 µg/mL	2.1 µg/mL	0.5 µg/mL	0.2 µg/mL
COc1cc2c(Oc3ccc(NC(=O)c4nn(-c5ccc(Cl)cc5Cl)c5ccccc5c4=O)cc3F)ccnc2cc1OCCCN1CCN(C)CC1 [Example 43, N-(3-fluoro-4-((6-methoxy-7-(3-(4-methylpiperazin-1-yl)propoxy)quinolin-4-yl)oxy)phenyl)-1-(2,4-dichlorophenyl)-4-oxo-1,4-dihydrocinnoline-3-carboxamide]	–	–	–	–	–	0.924 µM	0.53 µg/mL (≈ 0.7 µM)	0.77 µg/mL (≈ 1.02 µM)	1.2 µg/mL (≈ 1.58 µM)	0.45 µg/mL (≈ 0.594 µM)	1.8 µg/mL (≈ 2.38 µM)	–	–	–	–	–	–
COc1cc2c(Oc3ccc(NC(=O)c4nn(-c5ccc(F)cc5Br)c5ccccc5c4=O)cc3F)ccnc2cc1OCCCN1CCN(C)CC1 [Example 19, N-(3-fluoro-4-((6-methoxy-7-(3-(4-methylpiperazin-1-yl)propoxy)quinolin-4-yl)oxy)phenyl)-1-(2-bromo-4-fluorophenyl)-4-oxo-1,4-dihydrocinnoline-3-carboxamide]	2.2 µg/mL (≈ 2.8 µM)	1.2 µg/mL (≈ 1.53 µM)	0.54 µg/mL (≈ 0.687 µM)	0.86 µg/mL (≈ 1.09 µM)	1.6 µg/mL (≈ 2.04 µM)	1.53 µM	–	–	–	–	–	–	–	–	–	–	–
COc1cc2c(Oc3ccc(NC(=O)c4nn(-c5ccc(Cl)cc5Cl)c5ccccc5c4=O)cc3F)ccnc2cc1OCCCN1CCC(C)CC1 [Example 28, N-(3-fluoro-4-((6-methoxy-7-(3-(4-methylpiperidin-1-yl)propoxy)quinolin-4-yl)oxy)phenyl)-1-(2,4-dichlorophenyl)-4-oxo-1,4-dihydrocinnoline-3-carboxamide]	–	–	–	–	–	1.72 µM	2.3 µg/mL (≈ 3.04 µM)	1.6 µg/mL (≈ 2.11 µM)	0.9 µg/mL (≈ 1.19 µM)	1.8 µg/mL (≈ 2.38 µM)	1.3 µg/mL (≈ 1.72 µM)	–	–	–	–	–	–
COc1cc2c(Oc3ccc(NC(=O)c4nn(-c5ccccc5C(F)(F)F)c5ccccc5c4=O)cc3F)ccnc2cc1OCCCN1CCCC1.Cl.Cl [Example 1, N-(3-fluoro-4-((6-methoxy-7-(3-(pyrrolidin-1-yl)propoxy)quinolin-4-yl)oxy)phenyl)-1-(2-(trifluoromethyl)phenyl)-4-oxo-1,4-dihydrocinnoline-3-carboxamide dihydrochloride]	0.04 µg/mL	0.18 µg/mL	0.18 µg/mL	0.27 µg/mL	0.57 µg/mL	0.0625 µM	–	–	–	–	–	–	–	–	–	–	–
COc1cc2c(Oc3ccc(NC(=O)c4nn(-c5ccc(F)c(F)c5)c5ccccc5c4=O)cc3F)ccnc2cc1OCCCN1CCCCC1 [Example 11, N-(3-fluoro-4-((6-methoxy-7-(3-(piperidin-1-yl)propoxy)quinolin-4-yl)oxy)phenyl)-1-(3,4-difluorophenyl)-4-oxo-1,4-dihydrocinnoline-3-carboxamide]	0.06 µg/mL (≈ 0.0845 µM)	3.5 µg/mL (≈ 4.93 µM)	0.38 µg/mL (≈ 0.535 µM)	0.12 µg/mL (≈ 0.169 µM)	0.63 µg/mL (≈ 0.888 µM)	0.0423 µM	–	–	–	–	–	–	–	–	–	–	–
COc1cc2c(Oc3ccc(NC(=O)c4nn(-c5cc(C(F)(F)F)ccc5Cl)c5ccccc5c4=O)cc3F)ccnc2cc1OCCCN1CCN(C)CC1 [Example 23, N-(3-fluoro-4-((6-methoxy-7-(3-(4-methylpiperazin-1-yl)propoxy)quinolin-4-yl)oxy)phenyl)-1-(2-chloro-5-(trifluoromethyl)phenyl)-4-oxo-1,4-dihydrocinnoline-3-carboxamide]	1 µg/mL (≈ 1.26 µM)	1.3 µg/mL (≈ 1.64 µM)	0.7 µg/mL (≈ 0.885 µM)	0.9 µg/mL (≈ 1.14 µM)	1.4 µg/mL (≈ 1.77 µM)	0.404 µM	–	–	–	–	–	–	–	–	–	–	–
N-(3-fluoro-4-((6-methoxy-7-(3-(4-methylpiperazin-1-yl)propoxy)quinolin-4-yl)oxy)phenyl)-1-(2-(trifluoromethyl)phenyl)-4-oxo-1,4-dihydrocinnoline-3-carboxamide [Example 44]	–	–	–	–	–	–	–	–	–	–	–	1.6 µg/mL	0.84 µg/mL	1.2 µg/mL	1.8 µg/mL	2.1 µg/mL	1.1 µg/mL
